# Reference: patent US20250092039A1, “GLUTARIMIDE-CONTAINING PAN-KRAS-MUTANT DEGRADER COMPOUNDS AND USES THEREOF” (Tiger Biotherapeutics Inc., priority 2022, published 2025)
# Assays:
# KRAS G12V = KRAS G12V (Homo sapiens (Human), UniProt P01116, G12V); test: KRAS G12V degradation in SW620 cells (Western blot, DC50); type: cell-based; settings: 24 hours
# Outline: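 SW620 cells (homozygous KRAS G12V) were treated with compound for 24 hours at 37° C. KRAS in lysates was measured by Western blot with fluorescent secondary antibodies and expressed relative to DMSO vehicle (100%). DC50 came from a four-parameter variable-slope dose-response fit.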
# KRAS-G12V/RAF1 = KRAS-G12V/RAF1 (Homo sapiens (Human), UniProt P01116, G12V); test: KRAS/RAF1 binding inhibition assay (AlphaScreen)
# Outline: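 Binding of GppNHp-loaded KRAS G12V to the RAF1 RBD was measured by AlphaScreen with test compound present in 2% DMSO (final), 60 min incubation at 4° C. Signals were converted to % inhibition versus DMSO, and IC50 was obtained by variable-slope nonlinear regression.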
# SW620 cells = test: 3D cell growth inhibition of SW620 cells carrying endogenous KRAS G12V mutation (CellTiter-Glo 3D, GI50); type: cell-based; settings: Homo sapiens, SW-620, 144 h; SW620 cells, 6 days; read-out: SW620 3D cell growth GI50
# Procedure: The following day, the test compound was administered to the cells by using 1000× compound stock solution prepared in DMSO at various concentrations. 1000× compound stock solution was first diluted in culturing medium to 10×, then 10 μL compound medium was added to each well in the cell plates. After administration of the compound, the cells were then incubated at 37° C. for 6 days. Upon completion, the plates were equilibrated at room temperature for approximately 10 minutes. 100 μL of CellTiter-Glo® 3D Reagent (Promega) was added to each well. The plates were then incubated at room temperature for 30 minutes and luminescence was recorded by EnSpire plate reader (PerkinElmer).
# Sequence of KRAS G12V (P01116-2 other isoform, or with tags, fused parts or gaps G12V): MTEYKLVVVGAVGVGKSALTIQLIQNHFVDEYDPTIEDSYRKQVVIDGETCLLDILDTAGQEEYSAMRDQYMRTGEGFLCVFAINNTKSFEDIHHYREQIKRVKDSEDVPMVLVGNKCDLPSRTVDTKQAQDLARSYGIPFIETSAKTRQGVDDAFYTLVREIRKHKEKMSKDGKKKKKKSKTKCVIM
# Sequence of KRAS-G12V/RAF1 (P01116-2 other isoform, or with tags, fused parts or gaps G12V): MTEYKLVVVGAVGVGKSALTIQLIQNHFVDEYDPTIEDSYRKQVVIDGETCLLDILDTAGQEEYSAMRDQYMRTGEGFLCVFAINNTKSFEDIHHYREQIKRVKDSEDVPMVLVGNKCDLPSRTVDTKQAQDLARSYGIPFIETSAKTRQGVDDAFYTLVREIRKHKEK
DC50 (KRAS G12V) [nM],IC50 (KRAS-G12V/RAF1) [nM],GI50 (SW620 cells) [nM],Compound
1 to 10,20 to 200,< 10,"CCc1c(F)ccc2cc(O)cc(-c3ncc4c(N5CCC[C@@](C)(O)C5)nc(OCC5(CN6CC(N7CCN(c8ccc9c(c8)CN([C@H]8CCC(=O)NC8=O)C9=O)CC7)C6)CC5)nc4c3F)c12 [Compound 130, (S)-3-(5-(4-(1-((1-(((7-(8-ethyl-7-fluoro-3-hydroxynaphthalen-1-yl)-8-fluoro-4-((R)-3-hydroxy-3-methylpiperidin-1-yl)pyrido[4,3-d]pyrimidin-2-yl)oxy)methyl)cyclopropyl)methyl)azetidin-3-yl)piperazin-1-yl)-1-oxoisoindolin-2-yl)piperidine-2,6-dione]"
< 1,20 to 200,< 10,"CCc1c(F)ccc2cc(O)cc(-c3ncc4c(N5CCC[C@@](C)(O)C5)nc(OCC5(CN6CCC7(CC6)CC(C)(CN6CCN(c8ccc9c(c8)CN([C@H]8CCC(=O)NC8=O)C9=O)CC6)C7)CC5)nc4c3F)c12 [Compound 150, (3S)-3-[5-[4-[[7-[[1-[[7-(8-ethyl-7-fluoro-3-hydroxy-1-naphthyl)-8-fluoro-4-[(3R)-3-hydroxy-3-methyl-1-piperidyl]pyrido[4,3-d]pyrimidin-2-yl]oxymethyl]cyclopropyl]methyl]-2-methyl-7-azaspiro[3.5]nonan-2-yl]methyl]piperazin-1-yl]-1-oxo-isoindolin-2-yl]piperidine-2,6-dione]"
> 100,< 20,10 to 100,"CCc1c(F)ccc2cc(O)cc(-c3ncc4c(N5CCC[C@@](C)(O)C5)nc(OCC5(CN6CCC(CN7CCN(c8ccc(C9CCC(=O)NC9=O)cc8)CC7)CC6)CC5)nc4c3F)c12 (stereo partly drawn) [Compound 14, 3-(4-(4-((1-((1-(((7-(8-ethyl-7-fluoro-3-hydroxynaphthalen-1-yl)-8-fluoro-4-((R)-3-hydroxy-3-methylpiperidin-1-yl)pyrido[4,3-d]pyrimidin-2-yl)oxy)methyl)cyclopropyl)methyl)piperidin-4-yl)methyl)piperazin-1-yl)phenyl)piperidine-2,6-dione]"
1 to 10,20 to 200,< 10,"CCc1c(F)ccc2cc(O)cc(-c3ncc4c(N5CCOCC(C)(O)C5)nc(OCC5(CN6CCC(CN7CCN(c8ccc9c(c8)CN([C@H]8CCC(=O)NC8=O)C9=O)CC7)CC6)CC5)nc4c3F)c12 (stereo partly drawn) [Compound 92, (3S)-3-(5-(4-((1-((1-(((7-(8-ethyl-7-fluoro-3-hydroxynaphthalen-1-yl)-8-fluoro-4-(6-hydroxy-6-methyl-1,4-oxazepan-4-yl)pyrido[4,3-d]pyrimidin-2-yl)oxy)methyl)cyclopropyl)methyl)piperidin-4-yl)methyl)piperazin-1-yl)-1-oxoisoindolin-2-yl)piperidine-2,6-dione]"
< 1,< 20,< 10,"CCc1c(F)ccc2cc(O)cc(-c3ncc4c(N5CCC[C@@](C)(O)C5)nc(OCC5(CN6CCC(N7CC(N8CCN(c9ccc%10c(c9)CN([C@H]9CCC(=O)NC9=O)C%10=O)CC8)C7)CC6)CC5)nc4c3F)c12 [Compound 146, (S)-3-(5-(4-(1-(1-((1-(((7-(8-ethyl-7-fluoro-3-hydroxynaphthalen-1-yl)-8-fluoro-4-((R)-3-hydroxy-3-methylpiperidin-1-yl)pyrido[4,3-d]pyrimidin-2-yl)oxy)methyl)cyclopropyl)methyl)piperidin-4-yl)azetidin-3-yl)piperazin-1-yl)-1-oxoisoindolin-2-yl)piperidine-2,6-dione]"
1 to 10,< 20,< 10,"CCc1c(F)ccc2cc(O)cc(-c3ncc4c(N5CCC[C@@](C)(O)C5)nc(OCC5(CN6CCC(N7CCC8(CCN(c9ccc%10c(c9)CN(C9CCC(=O)NC9=O)C%10=O)CC8)CC7)CC6)CC5)nc4c3F)c12 (stereo partly drawn) [Compound 145, 3-(5-(9-(1-((1-(((7-(8-ethyl-7-fluoro-3-hydroxynaphthalen-1-yl)-8-fluoro-4-((R)-3-hydroxy-3-methylpiperidin-1-yl)pyrido[4,3-d]pyrimidin-2-yl)oxy)methyl)cyclopropyl)methyl)piperidin-4-yl)-3,9-diazaspiro[5.5]undecan-3-yl)-1-oxoisoindolin-2-yl)piperidine-2,6-dione]"
> 100,> 200,> 100,"CCc1c(F)ccc2cc(O)cc(-c3ncc4c(N5CCC(O)CC5)nc(OCC5(CN6CCC7(CC6)CC(CN6CCN(c8ccc9c(c8)CN([C@H]8CCC(=O)NC8=O)C9=O)CC6)C7)CC5)nc4c3F)c12 [Compound 114, (S)-3-(5-(4-((7-((1-(((7-(8-ethyl-7-fluoro-3-hydroxynaphthalen-1-yl)-8-fluoro-4-(4-hydroxypiperidin-1-yl)pyrido[4,3-d]pyrimidin-2-yl)oxy)methyl)cyclopropyl)methyl)-7-azaspiro[3.5]nonan-2-yl)methyl)piperazin-1-yl)-1-oxoisoindolin-2-yl)piperidine-2,6-dione]"
< 1,20 to 200,< 10,"C[C@@]1(O)CCCN(c2nc(OCC3(CN4CCC5(CC4)CC(F)(CN4CCN(c6ccc7c(c6)CN([C@H]6CCC(=O)NC6=O)C7=O)CC4)C5)CC3)nc3c(F)c(-c4cc(O)cc5ccc(F)c(F)c45)ncc23)C1 [Compound 174, (S)-3-(5-(4-((7-((1-(((7-(7,8-difluoro-3-hydroxynaphthalen-1-yl)-8-fluoro-4-((R)-3-hydroxy-3-methylpiperidin-1-yl)pyrido[4,3-d]pyrimidin-2-yl)oxy)methyl)cyclopropyl)methyl)-2-fluoro-7-azaspiro[3.5]nonan-2-yl)methyl)piperazin-1-yl)-1-oxoisoindolin-2-yl)piperidine-2,6-dione]"
> 100,> 200,< 10,"CCc1c(F)ccc2cc(O)cc(-c3ncc4c(N5CCC[C@@](C)(O)C5)nc(OCC5(CN6CCC(C#N)(CN7CCN(c8ccc9c(c8)CN([C@H]8CCC(=O)NC8=O)C9=O)CC7)CC6)CC5)nc4c3F)c12 [Compound 20, 4-((4-(2-((S)-2,6-dioxopiperidin-3-yl)-1-oxoisoindolin-5-yl)piperazin-1-yl)methyl)-1-((1-(((7-(8-ethyl-7-fluoro-3-hydroxynaphthalen-1-yl)-8-fluoro-4-((R)-3-hydroxy-3-methylpiperidin-1-yl)pyrido[4,3-d]pyrimidin-2-yl)oxy)methyl)cyclopropyl)methyl)piperidine-4-carbonitrile]"
> 100,20 to 200,> 100,"CCc1cccc2cc(O)cc(-c3ncc4c(N5CCC[C@@](C)(O)C5)nc(OCC5(CN6CC(CN7CC8(CCN(c9ccc%10c(c9)CN(C9CCC(=O)NC9=O)C%10=O)CC8)C7)C6)CC5)nc4c3F)c12 (stereo partly drawn) [Compound 17, 3-(5-(2-((1-((1-(((7-(8-ethyl-3-hydroxynaphthalen-1-yl)-8-fluoro-4-((R)-3-hydroxy-3-methylpiperidin-1-yl)pyrido[4,3-d]pyrimidin-2-yl)oxy)methyl)cyclopropyl)methyl)azetidin-3-yl)methyl)-2,7-diazaspiro[3.5]nonan-7-yl)-1-oxoisoindolin-2-yl)piperidine-2,6-dione]"
1 to 10,> 200,< 10,"CCc1c(F)ccc2cc(O)cc(-c3ncc4c(N5C[C@@H]6C[C@H](C5)[C@H](O)C6)nc(OCC5(CN6CCC7(CC6)CC(CN6CCN(c8ccc9c(c8)CN([C@H]8CCC(=O)NC8=O)C9=O)CC6)C7)CC5)nc4c3F)c12 [Compound 90, (S)-3-(5-(4-((7-((1-(((7-(8-ethyl-7-fluoro-3-hydroxynaphthalen-1-yl)-8-fluoro-4-((IR,5R,6R)-6-hydroxy-3-azabicyclo[3.2.1]octan-3-yl)pyrido[4,3-d]pyrimidin-2-yl)oxy)methyl)cyclopropyl)methyl)-7-azaspiro[3.5]nonan-2-yl)methyl)piperazin-1-yl)-1-oxoisoindolin-2-yl)piperidine-2,6-dione]"
> 100,> 200,> 100,"CCc1c(F)ccc2cc(O)cc(-c3ncc4c(N5CCC(O)CC5)nc(OCC5(CN6CCC(CN7CCN(c8ccc9c(c8)CN([C@H]8CCC(=O)NC8=O)C9=O)CC7)CC6)CC5)nc4c3F)c12 [Compound 115, (S)-3-(5-(4-((1-((1-(((7-(8-ethyl-7-fluoro-3-hydroxynaphthalen-1-yl)-8-fluoro-4-(4-hydroxypiperidin-1-yl)pyrido[4,3-d]pyrimidin-2-yl)oxy)methyl)cyclopropyl)methyl)piperidin-4-yl)methyl)piperazin-1-yl)-1-oxoisoindolin-2-yl)piperidine-2,6-dione]"
1 to 10,> 200,< 10,"CCc1c(F)ccc2cc(O)cc(-c3ncc4c(N5CCCn6nc(C(=O)N(C)C)c(Cl)c6C5)nc(OCC5(CN6CCC(CN7CCN(c8ccc9c(c8)CN([C@H]8CCC(=O)NC8=O)C9=O)CC7)CC6)CC5)nc4c3F)c12 [Compound 108, (S)-3-chloro-5-(2-((1-((4-((4-(2-(2,6-dioxopiperidin-3-yl)-1-oxoisoindolin-5-yl)piperazin-1-yl)methyl)piperidin-1-yl)methyl)cyclopropyl)methoxy)-7-(8-ethyl-7-fluoro-3-hydroxynaphthalen-1-yl)-8-fluoropyrido[4,3-d]pyrimidin-4-yl)-N,N-dimethyl-5,6,7,8-tetrahydro-4H-pyrazolo[1,5-a][1,4]diazepine-2-carboxamide]"
